Results published in US20150336996A1, “MANGANESE-BASED MAGNETIC RESONANCE CONTRAST AGENTS” (THE GENERAL HOSPITAL CORPORATION, priority 2013, published 2015).

Legend:
Assay type in all cases: physicochemical
[1] = T1 relaxivity (r1) by inversion recovery on Bruker mq60 Minispec, 1.4 T, 37° C., TRIS buffer pH 7.4
Experimental: (§1) Liquid chromatography-electrospray mass spectrometry (LC-MS) was performed using an Agilent 1100 Series apparatus with an LC/MSD trap and Daly conversion dynode detector with UV detection at 220, 254 and 280 nm. The methods used on this system are as follows: (a) Luna C18 column (100×2 mm); eluent A: H2O/0.1% formic acid, B: MeCN/0.1% formic acid; gradient: 5% B to 95% B over 9 minutes; flow rate 0.8 mL/min (used for characterization of organic compounds), and (b) Kromasil C18 column (250×4.6 mm); eluent C: 95% MeCN/5% 10 mM ammonium acetate, D: 10 mM ammonium acetate; gradient 5% C to 8% C over 14 minutes; flow rate 0.8 ml/min (used for characterization of manganese complexes). Reversed-phase semipreparative purification was performed on a Rainin Dynamax HPLC system with UV detection at 254 nm using a Polaris C18 column. The method used for purification is as follows: The mobile phase A was 50 mM ammonium acetate buffer, pH 6.5 and mobile phase B was a mixture of 5% 50 mM ammonium acetate buffer, pH 6.5/95% MeCN. Starting from 5% B, the fraction of B increased to 8% over 23 minutes. The column was washed with 100% B for 2 minutes and then ramped to 5% B. The system was re-equilibrated at 5% B for 3 minutes. Relaxivity measurements were performed on a Bruker mq60 Minispec at 1.4 T and 37° C. Manganese concentrations were determined using an Agilent 7500a ICP-MS system. All samples were diluted with 0.1% Triton X-100 in 5% nitric acid containing 20 ppb of Lu (as internal standard). The ratio of Mn (54.94)/Lu(174.97) was used to quantify the manganese concentration. A linear calibration curve ranging from 0.1 ppb to 200 ppb was generated daily for the quantification. UV-Vis spectra were recorded on a SpectraMax M2 spectrophotometer using quartz cuvette with a 1 cm path length. Cyclic voltammetry of Mn^IIHBET, Mn^IIEDTA and Mn^IIIHBET was recorded using a Nuvant EZstat pro potentiostat in TRIS buffer (pH=7.4), containing 0.5M KNO3 as supporting electrolyte, at 100 mVs-1 scan rate. Glassy carbon was used as the working electrode, Ag/AgCl served as the reference electrode and Pt wire was used as the auxiliary electrode. The K4FeCN6/K3FeCN6 couple was used as the internal standard.
T1 was measured with an inversion recovery pulse sequence taking 10 inversion times. Relaxivity was determined from the slope of a plot of 1/T1 vs. concentration of in TRIS buffer, pH=7.4 at 37° C. The concentration of manganese in each stock solution was determined using ICP-MS.
All chemicals and solvents were purchased commercially and used without further purification. NMR spectra were recorded on either a 500 MHz or 400 MHz Varian spectrometers. Chemical shifts are reported in δ (ppm). For ^1H and ^13C NMR spectra, the residual solvent peaks were used as internal reference, except for the ^13C NMR of the ligand where tertiary-butanol was used as the internal reference. Liquid chromatography-electrospray mass spectrometry (LC-MS) was performed using an Agilent 1100 Series apparatus with an LC/MSD trap and Daly conversion dynode detector with UV detection at 220, 254 and 280 nm. The methods used on this system are as follows: (a) Luna C18 column (100×2 mm); eluent A: H2O/0.1% formic acid, B: MeCN/0.1% formic acid; gradient: 5% B to 95% B over 9 minutes; flow rate 0.8 mL/min (used for characterization of organic compounds), and (b) Kromasil C18 column (250×4.6 mm); eluent C: 95% MeCN/5% 10 mM ammonium acetate, D: 10 mM ammonium acetate; gradient 5% C to 8% C over 14 minutes; flow rate 0.8 ml/min (used for characterization of manganese complexes). Reversed-phase semipreparative purification was performed on the Rainin Dynamax HPLC system with UV detection at 254 nm using a Polaris C18 column. The method used for purification is as follows: The mobile phase A was 50 mM ammonium acetate buffer, pH 6.5 and mobile phase B was a mixture of 5% 50 mM ammonium acetate buffer, pH 6.5/95% MeCN. Starting from 5% B, the fraction of B increased to 8% over 23 minutes. […]

[2] = T1 measurement by MR imaging at 4.7 T (Bruker Biospec); settings: room temperature, pH 7.4 TRIS buffer
Experimental: Right: relaxivities measured at room temperature at 4.7 T.
MR imaging was performed using a Bruker Biospec 4.7T system. Three samples (˜500 μL) were placed in a homemade sample holder and imaged using a volume coil. Acquisition matrix=64×256 for 0.234×0.312 mm^2 in-plane resolution; slice thickness=5 mm. T1-weighted images were obtained with a fast low angle shot (FLASH) gradient echo sequence: TR/TE/FA=20/5.44/40° with 8 averages. T1 was determined using a 2D rapid acquisition refocused echo (RARE) inversion recovery sequence: TR=3200 ms, TE=9.7 ms. Inversion times (TI): 5, 45, 85, 165, 325, 645, 1285, 1925 and 3205 ms. T1 was obtained from a nonlinear least square fit of the signal intensity (SI(t)) vs. TI curve where T1, SI(0) and a are adjustable parameters, equation S2.
SI(t)=SI(0)[1−α,e^TI/T1] (eq. S2)

[3] = Cyclic voltammetry of the Mn(III)/Mn(II) redox couple
Experimental: Potentials are vs. K4Fe(CN)6/K3Fe(CN)6; and in (b), a Cottrell plot of the Mn^2+/Mn^3+ couple—ia, (decreasing line) and ic (increasing line) vs. √v, where v=scan rate.
as §1

[4] = UV spectrum as a function of pH (phenol deprotonation pKa); settings: fit of UV absorbance vs pH
Experimental: To probe the speciation of the manganese complexes in solution, pH titrations of 1:1 Mn^2+:ligand were performed using a 1 N NaOH under N2 atmosphere (FIG. 21).
To determine the species that exists in these two pH ranges the UV spectrum as a function of pH was monitored (see FIGS. 22-24).

[5] = Stability of manganese complexes in buffers
Experimental: The stability of the manganese complexes were measured in different buffers using concentrations similar to those found in the blood plasma (1 mM phosphate buffer, 25 mM sodium bicarbonate buffer and 0.1 mM citrate buffer). A solution, 0.5 mM, of the manganese complex was incubated in the respective buffers at 37° C. (pH=7.4) and the species were then quantified on the LC-MS using the method as described earlier. The manganese complexes (0.5 mM) were also treated with EDTA (0.5 mM) in TRIS buffer (pH=7.4) and incubated at 37° C. for 1 hour. The species were then quantified on the LC-MS using the method as described earlier.

T1 relaxivities ([1]; 1.4 T, Tris buffered saline pH 7.4, 37° C.): 2.76 mM⁻¹ s⁻¹ | r1 (relaxivity of manganese complexes) ([1]; pH 7.4, 37° C., 1.4 Tesla): 2.76 mM⁻¹ s⁻¹ | fold higher relaxivity of reduced Mn^II-HBET form vs Mn^III-HBET [2]: 3.3 fold | reversible oxidation peak ([3]; TRIS buffer pH 7.4, vs. K4Fe(CN)6/K3Fe(CN)6): 0.356 V | Half-cell potential vs. normal hydrogen electrode (NHE) ([3]; pH 7.4, vs. NHE): 379 mV | pKa for ionization of the phenol [4]: 7.64 | stability in phosphate and carbonate buffers [5]: stable
SMILES: O=C([O-])CN(CCN(CC(=O)[O-])Cc1ccccc1[O-])CC(=O)[O-].[Mn+2].[Na+].[Na+] [Compound 4, Na2[Mn^IIHBET]]
